Read-outs that look alike come from different tables or passages of the source.
Tests used:
EDEMA FROM CARRAGEENIN = assay: carrageenin edema test; type: in vivo, mouse; details: for ED50: NSAID alone, per os 60 minutes before carrageenin, edema volume after 3 hours, read-out: ED₅₀ ± S.D. (dose reducing edema by 50%)
[1] = acute oral toxicity (LD50); type: in vivo; details: in vivo, po; mouse, orally; read-out: LD₅₀
[2] = system: phenylquinone induced writhing; assay: writhing test (phenylquinone-induced abdominal contractions); type: in vivo, mouse; details: for time of maximum effect after administration: ED50 dose given orally, effect as a function of time; for ED50: Mus musculus, read-out: ED₅₀ ± D.5 (anti-writhing action)
Protocol: In order to experimentally test the above analgesic effect, which involves the µ and K type opiate receptors, the writhing test (literally: "induced abdominal contracture test") with […] of phenylquinone or paraphenylbenzoquinone (0.02% in 5% ethanol), has been choosed. Since phenylquinone is a photosensitive, said solution was kept dark bottle at 37 °C with continuous stirring. Groups of animals were treated orally with different doses of glycinamide at various time intervals before phenylquinone being administered by intraperitoneal way. For each experimental point 3 groups of 10 animals each were tested. After the phenylquinone administration, the animals were placed in glass cylinders and the abdominal contractions were recorded for 20 minutes starting form the fifth minute following the intraperitoneal administration of phenylquinone. As an average, about 50±15 abdominal contractions were recorded during the surveying time. The choice of phenylquinone as the writhing inductor is justified by the greater qualitative constance and higher number of contractions obtainable when compared with other inductors such as acetylcholine, acetic acid, ethacrynic acid, air, etc. [table]

mouse = assay: acute oral toxicity (LD50); type: in vivo; details: orally
[3] = substance alone, orally, mouse, phenylquinone 2 mg/kg i.p.

COc1ccc2c(c1)c(CC(=O)O)c(C)n2C(=O)c1ccc(Cl)cc1 [Indomethacin]
ED50 (EDEMA FROM CARRAGEENIN; mouse): 84 ± 12 mg/kg

CC(=O)Oc1ccccc1C(=O)O [Acetylsalicylic acid]
ED50 (EDEMA FROM CARRAGEENIN; mouse): 5.1 ± 0.8 mg/kg

CC(=O)NCC(N)=O [N-acetylglycinamide]
LD50 [1]: > 2000 mg/kg
peripheral analgesic activity compared with glycinamide ([2]; mouse, in vivo): shared both qualitatively and quantitatively

O=C(O)Cc1ccccc1Nc1c(Cl)cccc1Cl [Sodium diclofenac]
ED50 (EDEMA FROM CARRAGEENIN; mouse): 10 ± 3.6 mg/kg
time of maximum effect after administration ([2]; mouse): 45 min
ED50 ([2]; + Glycinamide HCl 15 mg/kg orally 13 minutes before testing, mouse): 1.86 ± 1.15 mg/kg
ED50 ([2]; + Glycinamide HCl 25 mg/kg orally 13 minutes before testing, mouse): 1.12 ± 1.2 mg/kg
ED50 ([2]; + Glycinamide HCl 50 mg/kg orally 13 minutes before testing, mouse): 1.05 ± 1.31 mg/kg
ED50 ([2]; + Glycinamide HCl 75 mg/kg orally 13 minutes before testing, mouse): 1.02 ± 1.26 mg/kg
ED50 ([2]; + Glycinamide HCl 100 mg/kg orally 13 minutes before testing, mouse): 1.28 ± 1.16 mg/kg
ED50 [2, 3]: 2.93 ± 1.43 mg/kg

NCC(=O)O [glycine]
enhancement of the action of peripheral analgesic drugs ([2]; test not given): does not produce

CC(C)Cc1ccc(C(C)C(=O)O)cc1 (stereo not drawn) [Ibuprofen]
ED50 (EDEMA FROM CARRAGEENIN; mouse): 20 ± 2.4 mg/kg

NCC(N)=O [Glycinamide]
LD₅₀ (mouse): higher than 2 g/Kg
enhancement of the effect of sodium diclofenac (EDEMA FROM CARRAGEENIN; 50 mg/kg of glycinamide, based on the carrageenin edema test): at least 2.8 times
anti-edema effect (EDEMA FROM CARRAGEENIN; glycinamide alone, 50 mg/kg orally 50 minutes before carrageenin, mouse): does not develop an anti-edema effect
enhancement of the antiphlogistic and visceral peripheral analgesic effect of sodium diclofenac ([2]; 25 mg/kg of glycinamide, based on writhing test): at least 2.5 times
time of maximum effect after administration ([2]; mouse): about 13 minutes
ED50 [2, 3]: ~82.9 mg/kg
reduction (anti-writhing action, peak) ([2]; orally administered dose of 200 mg/kg, mouse): 81.3%

From patent EP0637448A1, “Combinations of glycinamide or N-acetylglycinamide with analgesic compounds” (ISCOFAR SAS DI PAOLO E. GHIRARDI, priority 1993, dated 1995)
